Results published in patent publication US12319699B2, “L-proline sulfonamide derivatives comprising pyrazolo[4,3-e]tetrazolo[4,5-b][1,2,4]triazine system, method of manufacturing thereof, uses thereof and pharmaceutical composition comprising the same” (UNIWERSYTET MEDYCZNY W BIALYMSTOKU, priority 2018, dated 2025).

Columns and labels:
[1] = test system: HT-29 colorectal cancer cells; experiment: Induction of apoptosis, Annexin V-FITC / propidium iodide flow cytometry; format: cell-based, human; conditions: 24 hours
Experimental: (§1) HT-29 human colorectal cancer cells (ATCC HTB-38, Manassas, VA, USA) were cultured in McCoy's 5A medium supplemented with 10% fetal bovine serum (FBS), 2 mM glutamine, 50 U/ml penicillin, 50 μg/ml of streptomycin at 37° C., in atmosphere containing 5% CO2. Subsequently, the cells were counted in a hemocytometer and were transferred in the amount of 1×10^6 cells per well in 1 ml of culture medium from Costar flasks (Sigma, USA) to Nunc 6-well plates (Wiesbaden, Germany). The cells were transferred using calcium-free phosphate buffer with the addition of 0.05% trypsin and 0.02% EDTA. […] Within the subsequent 24 hours the cells covered at least 80% of the surface of each plate well. The cells prepared in this manner were incubated with the examined compounds for 24 hours and then used for further experiments.
Induction of apoptosis was examined by a method using fluorescein isothiocyanate-labelled Annexin V (Annexin V-FITC) which forms complexes with phosphatidylserine in the presence of calcium ions. The complexes were determined using FITC Annexin V Apoptosis Detection Kit II (BD Biosciences, USA) and a flow cytometer BD FACSCanto H (BD Biosciences Systems, San Jose, CA, USA). The analysis of results was carried out by means of FACSDiva software (BD Biosciences Systems, San Jose, CA USA).
DLD-1 and HT-29 cells were incubated for 24 hours in an incubator at 37° C. in a 5% CO2 atmosphere with medium containing the examined compounds according to the invention at specific concentrations. Both examined compounds were used at a concentration of 1.5 μM and 3.0 μM. After the incubation period, the medium was removed, a binding buffer included in the kit was added and the cells were suspended in the buffer. In order to calibrate the apparatus two control samples, i.e. a positive one and a negative one, were prepared. The positive control constituted a reference of control cells in which apoptosis was induced by the addition of 3% formaldehyde. Three control samples were prepared. The first sample contained control cells and propidium iodide, the second sample contained control cells and Annexin V-FITC and the third sample contained control cells, propidium iodide and Annexin V-FITC. After adding 2 μl of 3% formaldehyde the cells were placed in a refrigerator for 10 minutes. Cells that were not treated with any agent constituted the negative control. The cells from the control samples and the cells treated by the examined compounds according to the invention (1×10^6 cells/ml) suspended in the buffer included in the kit were subjected to further examination. 200 μl suspension were taken from each examined sample and were transferred to test tubes. 3 μl Annexin V-FITC and 5 μl propidium iodide (PI) were added to each sample in room temperature and the samples were placed in a dark place for 15 minutes. Cell suspension prepared in this manner was analyzed within one hour in the flow cytometer BD FACSCanto II (BD Biosciences Systems, San Jose, CA, USA) by means of FACSDiva software. The results of the above experiment can be described as follows: live cells (double negative sample—lack of reaction with Annexin V and P), early apoptosis (Annexin V positive and PI negative sample), late apoptosis (Annexin V positive and PI positive sample) and necrosis (Annexin V negative and PI positive sample)

[2] = test system: AGS human gastric cancer cells; experiment: Cytotoxicity, MTT assay (Carmichael's method), cell survival; format: cell-based; conditions: 24-hour incubation
Experimental: AGS human gastric cancer cells (ATCC CRL-1739, Manassas, VA, USA) were cultured in DMEM (Dulbecco's Modified Eagle's Medium) supplemented with 10% fetal bovine serum (FBS), 2 mM glutamine, 50 U/ml penicillin, 50 μg/ml streptomycin at 37° C., in atmosphere containing 5% CO2. Subsequently, the cells were counted in a hemocytometer and transferred in the amount of […] cells per well in 1 ml of culture medium from Costar flasks (Sigma, USA) to Nunc 6-well plates (Wiesbaden, Germany). The cells were transferred using calcium-free phosphate buffer with the addition of 0.05% trypsin and 0.02% EDTA. […] Within the subsequent 24 hours the cells covered at least 80% of the surface of each plate well. […]
Cytotoxicity of the examined compounds according to the invention was measured by Carmichael's method (Carmichael J et al, Cancer Res., 1987, 47:943-946) and cell viability was determined using the tetrazolium salt (MT) in MTT assay. […] In a cell lysate prepared in such manner absorbance at 630 nm was measured. The result of absorbance obtained in the control cell cultures was assumed to be 100%. The viability of cells incubated in the presence of the examined compounds was expressed as percentage of the control values. The significance level p was determined by the nonparametric Mann-Whitney U test by means of SigmaStat software. […]

[3] = test system: HT-29 colorectal cancer cells; experiment: Decrease in mitochondrial membrane potential, JC-1 MitoScreen flow cytometry; format: cell-based, human; conditions: 24 hours
Experimental: as §1
For the assessment of changes in mitochondrial potential JC-1 MitoScreen kit (BD Biosciences. USA) was used. DLD-1 and HT-29 cancer cells covering about 80% of the plate surface were incubated with the examined compounds according to the invention at specific concentrations in an incubator at 37° C. in 5% CO2 atmosphere for 24 hours. Both examined compounds according to the invention were used at a concentration of 1.5 μM and 3.0 μM. After the incubation period, the medium was removed, the buffer included in the kit was added and the cells after washing two times were suspended in a mixture of JC-1 dye (5,5′,6,6′-tetrachloro-1,1′,3,3′-tetraethylbenzimidazol carbocyanine iodide) with a buffer at a concentration of 10 μg/ml. Subsequently, the samples were incubated in darkness for 15 minutes, washed with PBS solution and subjected to immediate analysis with the use of BD FacsCanto II flow cytometer; the results were assessed with the use of BD FacsDiva software. In live intact cells JC-1 dye accumulates in mitochondria and forms orange fluorescing aggregates. A decrease in mitochondrial potential ΔΨm is characterized by disintegration of these aggregates and green fluorescence.

[4] = HT-29, 1.5 μM, listed as compound of Formula 2

Structure (SMILES)	Early apoptosis ([1]; HT-29, 1.5 μM) [%]	Late apoptosis ([1]; HT-29, 1.5 μM) [%]	Live cells ([1]; HT-29, 1.5 μM) [%]	Necrosis ([1]; HT-29, 1.5 μM) [%]	early and late apoptotic cells (total) ([1]; HT-29, 1.5 μM) [%]	Necrosis ([1]; HT-29, 1.5 μM, listed as compound of Formula 3) [%]	Early apoptosis ([1]; HT-29, 3.0 μM) [%]	Late apoptosis ([1]; HT-29, 3.0 μM) [%]	Necrosis ([1]; HT-29, 3.0 μM) [%]	IC50 [2] [µM]	decrease of ΔΨm, % of the cell population ([3]; HT-29, 1.5 μM) [%]	decrease of ΔΨm, % of the cell population ([3]; HT-29, 3.0 μM) [%]	Early apoptosis [1, 4] [%]	Late apoptosis [1, 4] [%]	Necrosis [1, 4] [%]	Live cells ([1]; HT-29, 3.0 μM) [%]	apoptotic cells (total) ([1]; HT-29, 3.0 μM) [%]	Necrosis ([1]; HT-29, 3.0 μM, listed as compound of Formula 2) [%]
COC(=O)C1CC(O)CN1S(=O)(=O)c1ccc(-n2nc(C)c3nc4nnnn4nc32)cc1 (stereo not shown) [Compound of Formula 3, Methyl 4-hydroxy-1-[4-(7-methyl-5H-pyrazolo[4,3-e]tetrazolo[4,5-b][1,2,4]triazyn-5-yl)phenylsulfonyl]pyrrolidine-2-carboxylate]	14.5	16.0	65.0	4.5	30.5	4.5	25.2	13.7	2.6	0.8 ± 0.01	26.9	81.0						
COC(=O)C1CCCN1S(=O)(=O)c1ccc(-n2nc(C)c3nc4nnnn4nc32)cc1 (stereo not shown) [Compound of Formula 2, Methyl 1-[4-(7-methyl-5H-pyrazol[4,3-e]tetrazolo[4,5-b][1,2,4]triazyn-5-yl)phenylsulfonyl]pyrrolidine-2-carboxylate]	9.0	4.7	85.3	1.0			9.6	9.4	2.7	0.92 ± 0.01	25.7	79.7	9.0	4.7	1.0	78.3	19.0	2.7
